Measurements as given in patent US7879795B2, “Enhancement of tigecycline potency using efflux pump inhibitors” (Mpex Pharmaceuticals, Inc., priority 2004, dated 2011).

Tests used:
[1] = Solubility in water (stock solutions); conditions: stock solutions 10 mg/ml
[2] = tested on: PAM 1753, MexEF-OprN over-expressed; assay: Tigecycline potentiation checkerboard assay, PAM 1753; format: cell-based, P. aeruginosa; set-up: Tigecycline MIC in the presence of Compound 21: unit not given here; conditions: PAM 1753
Description: The ability of compound 21 to increase susceptibility to tigecycline was also assessed. The tigecycline potentiating activity of compound 21 was assessed by the checkerboard assay (Antimicrobial Combinations, Antibiotics in Laboratory Medicine, ed. Victor Lorian, M.D., Fourth edition, 1996, pp 333-338, which is incorporated herein by reference in its entirety) using a broth micro-dilution method performed as recommended by the CSLI (Clinical and Laboratory Standards Institute, formerly NCCLS) guidelines (National Committee for Clinical Laboratory Standards 2003. Methods for Dilution Antimicrobial Susceptibility Tests for Bacteria That Grow Aerobically—Sixth Edition; Approved Standard. NCCLS Document M7-A6, Vol 20 No. 2). In this assay, multiple dilutions of the two drugs, compound 21 and tigecycline, were tested alone and in combination, at concentrations equal to, above and below their respective minimal inhibitory concentrations (MICs). […] The stock solution was further diluted in Mueller Hinton Broth (MHB). Stock solutions were stored at −80° C.
The checkerboard assay was performed in microtiter plates. Tigecycline was diluted in the x axis, each column containing a single concentration of tigecycline. Compound 21 was diluted in the y axis, each row containing an equal concentration of the EPI. […] The assay was performed in MHB with a final bacterial inoculum of 5×10^5 CFU/ml (from an early-log phase culture). The microtiter plates were incubated for 20 hours at 35° C. and then read using a microtiter plate reader (Molecular Devices) at 650 nm, as well as by visual observation using a microtiter plate-reading mirror.

In the case of `NCCC[C@H](N)C(=O)N[C@H](Cc1ccc(C(F)(F)F)cc1)C(=O)Nc1cnc2ccccc2c1` [Compound 21, 2-(S),5-Diamino-pentanoic acid [1-(R)-(quinolin-3-ylcarbamoyl)-2-(4-trifluoromethyl-phenyl)-ethyl]amide], the solubility in water [1] was “readily soluble in water”, the “Tigecycline MIC in the presence of Compound 21” value (“Tigecycline MIC in the presence” below) ([2]; Compound 21 0.625 μg/ml) was 1 and the “Tigecycline MIC in the presence” value ([2]; Compound 21 1.25 μg/ml) was 1. The “Tigecycline MIC in the presence” value ([2]; Compound 21 5 μg/ml) was 0.25, the “Tigecycline MIC in the presence” value ([2]; Compound 21 10 μg/ml) was 0.25 and the “Tigecycline MIC in the presence” value ([2]; Compound 21 20 μg/ml) was 0.25. The “Tigecycline MIC in the presence” value ([2]; Compound 21 40 μg/ml) was 0.25 and the “Tigecycline MIC in the presence” value ([2]; Compound 21 […]) was 0.25.
